In PubChem BioAssay (NCI):
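48-hour exposure; five concentrations; linearly interpolated endpoints. GI50 = concentration required for 50% inhibition of growth. TGI marks complete inhibition of growth.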

What was measured:
Assay in all cases: DTP human tumour cell line panel, 48 h
[1] = test system: CAKI-1 renal
[2] = test system: K-562 leukemia
[3] = test system: LOX IMVI melanoma
[4] = test system: NCI/ADR-RES ovarian
[5] = test system: OVCAR-4 ovarian
[6] = test system: OVCAR-5 ovarian
[7] = test system: OVCAR-8 ovarian
[8] = test system: SK-OV-3 ovarian
[9] = test system: SNB-19 CNS
[10] = test system: UO-31 renal

Row | SMILES | TGI [1] | TGI [2] | TGI [3] | TGI [4] | TGI [5] | TGI [6] | TGI [7] | TGI [8] | TGI [9] | TGI [10] | GI50 [1] | GI50 [2] | GI50 [3] | GI50 [4] | GI50 [5] | GI50 [6] | GI50 [7] | GI50 [8] | GI50 [9] | GI50 [10]
1 | N#Cc1c(NC(=S)NC(=O)c2ccccc2)nc2c(c1-c1ccccc1)CCC2 | > 100 µM | > 100 µM | > 100 µM | > 100 µM | > 100 µM | > 100 µM | > 100 µM | > 100 µM | > 100 µM | > 100 µM | – | – | – | – | – | – | – | – | – | –
2 | Nc1n[nH]c(=O)[nH]1 | > 100 µM | > 100 µM | > 100 µM | > 100 µM | > 100 µM | > 100 µM | > 100 µM | > 100 µM | > 100 µM | > 100 µM | – | – | – | – | – | – | – | – | – | –
3 | O=[Se]([O-])c1ccccc1.O=[Se]([O-])c1ccccc1.[OH3+].[OH3+].[Pt+2] | > 26.4 µM | 34.6 µM | 19.2 µM | 9.89 µM | 10.3 µM | 39.1 µM | 20.2 µM | > 100 µM | 33.7 µM | 46.2 µM | 11 µM | 10 µM | 3.42 µM | 2.8 µM | 2.15 µM | 15.5 µM | 3.03 µM | 56.6 µM | 10.9 µM | 5.78 µM
4 | C=CC(=O)Nc1cccc(-c2nc(SC)nc(Nc3ccccc3OC)c2C#N)c1 | 4.3 µM | 5.62 µM | – | 6.99 µM | – | 5.92 µM | 5.42 µM | 26.9 µM | 6.51 µM | 3.18 µM | 1.71 µM | 2.03 µM | – | 2.46 µM | – | 2.26 µM | 2.07 µM | 6.09 µM | 2.31 µM | 1.42 µM
5 | COC1OC(=O)[C@H]2O[N+]([O-])=C(C)[C@@H]12 (stereo partly drawn) | > 100 µM | > 100 µM | > 100 µM | > 100 µM | > 100 µM | > 100 µM | > 100 µM | > 100 µM | > 100 µM | > 100 µM | – | – | – | – | – | – | – | – | – | –
6 | O=C(O)c1ccc(NC(c2ccccc2)c2ccc3cccnc3c2O)cc1 (stereo not drawn) | 59.2 µM | > 49.8 µM | > 57.6 µM | > 45.3 µM | 36.6 µM | > 100 µM | > 41.5 µM | > 100 µM | > 100 µM | 34.6 µM | – | – | – | – | – | – | – | – | – | –
7 | O=C(Nc1ccc(I)cc1C(=O)NCCO)c1cccs1 | > 100 µM | > 100 µM | > 100 µM | > 100 µM | > 100 µM | > 100 µM | > 100 µM | > 100 µM | > 100 µM | > 100 µM | – | – | – | – | – | – | – | – | – | –
8 | CCC(=O)C(c1ccccc1)c1ccccn1 (stereo not drawn) | > 100 µM | – | > 100 µM | > 100 µM | > 100 µM | > 100 µM | > 100 µM | > 100 µM | > 100 µM | > 100 µM | – | – | – | – | – | – | – | – | – | –
9 | CSC1=Nc2ccccc2N(C)c2c1c(-c1ccccc1)nn2C | > 100 µM | 55.9 µM | > 100 µM | > 100 µM | > 100 µM | > 100 µM | > 100 µM | > 100 µM | – | – | – | – | – | – | – | – | – | – | – | –
10 | Cc1[nH]c(/C=C2\C(=O)Nc3ccc(S(=O)(=O)Cc4c(Cl)cccc4Cl)cc32)c(C)c1C(=O)N1CCC[C@@H]1CN1CCCC1 | 13.6 µM | > 100 µM | 3.22 µM | > 24.4 µM | 70.7 µM | 3.72 µM | 4.37 µM | 59.1 µM | 6.74 µM | 3.07 µM | 5.05 µM | 1.63 µM | 1.73 µM | 2.96 µM | 26.1 µM | 1.95 µM | 1.88 µM | 22.4 µM | 2.41 µM | 1.41 µM
11 | O=C1CC(=O)N(c2ccccc2)N1/C(=C/c1ccccc1)c1ccccc1 | 33.7 µM | > 100 µM | 3.06 µM | 61.5 µM | 60.5 µM | > 100 µM | 45.3 µM | 76.5 µM | 43.6 µM | 29.2 µM | – | – | – | – | – | – | – | – | – | –
12 | CCn1cc(C(c2ccc(Cl)cc2)n2ccnc2)c2cc(Br)ccc21 (stereo not drawn) | 27.3 µM | 33.5 µM | 28.2 µM | 42.7 µM | 22.8 µM | 25.5 µM | 31.6 µM | 33.3 µM | 28.3 µM | 20.1 µM | – | – | – | – | – | – | – | – | – | –
13 | OCC1CCCC(n2cnc3c(=S)nc[nH]c32)O1 (stereo not drawn) | > 100 µM | > 100 µM | > 100 µM | > 100 µM | > 100 µM | > 100 µM | > 100 µM | > 100 µM | > 100 µM | > 100 µM | – | – | – | – | – | – | – | – | – | –
